# Assay results taken from article PMC11240139, “Exploring the antitumor potential of novel quinoline derivatives via tubulin polymerization inhibition in breast cancer; design, synthesis and molecular docking” (RSC Advances, 2024).
# What was measured:
# Experiment in all cases: NCI-60 SRB cytotoxicity screen
# Format in all cases: cell-based
# SK-MEL-2 (melanoma) = test system: SK-MEL-2 (melanoma)
# 786-0 (renal cancer) = test system: 786-0 (renal cancer)
# PC-3 (prostate cancer) = test system: PC-3 (prostate cancer)
# [1] = test system: NCI-H226 (non-small cell lung cancer)
# TK-10 (renal cancer) = test system: TK-10 (renal cancer)
# [2] = test system: HOP-62 (non-small cell lung cancer)
# DU-145 (prostate cancer) = test system: DU-145 (prostate cancer)
# HS 578T (breast cancer) = test system: HS 578T (breast cancer)
# UO-31 (renal cancer) = test system: UO-31 (renal cancer)
# KM12 (colon cancer) = test system: KM12 (colon cancer)
# HCT-116 (colon cancer) = test system: HCT-116 (colon cancer)
# UACC-62 (melanoma) = test system: UACC-62 (melanoma)
# [3] = test system: NCI-H522 (non-small cell lung cancer)
# LOX IMVI (melanoma) = test system: LOX IMVI (melanoma)
# A498 (renal cancer) = test system: A498 (renal cancer)
# [4] = test system: NCI-H23 (non-small cell lung cancer)
# ACHN (renal cancer) = test system: ACHN (renal cancer)
# [5] = Homo sapiens, NCI-H226, five-dose assay
# [6] = Homo sapiens, HOP-62, five-dose assay
# [7] = Homo sapiens, single dose 10 μM, read-out: growth inhibition (GI%)
# [8] = Homo sapiens, UO-31, five-dose assay
# [9] = Homo sapiens, HCT-116, five-dose assay
# [10] = Homo sapiens, NCI-H522, five-dose assay
# [11] = Homo sapiens, A498, five-dose assay
# [12] = Homo sapiens, NCI-H23, five-dose assay
smiles,measurement,setting,value
"CCc1cccc2cc(-c3cc(-c4cc(OC)c(OC)c(OC)c4)[nH]c(=O)c3C#N)c(Cl)nc12 [Compound 4c, 4-(2-Chloro-8-ethylquinolin-3-yl)-2-oxo-6-(3,4,5-trimethoxyphenyl)-1,2-dihydropyridine-3-carbonitrile]",GI50,"SK-MEL-2 (melanoma); Homo sapiens, SK-MEL-2, five-dose assay",39.8 µM
same,CC50,"SK-MEL-2 (melanoma); Homo sapiens, SK-MEL-2, five-dose assay, read-out: LC50 (the source's name)",> 100 µM
same,inhibition at 10 µM,"SK-MEL-2 (melanoma); Homo sapiens, SK-MEL-2, single dose 10 μM, read-out: growth inhibition (GI%)",29.8%
same,TGI,"SK-MEL-2 (melanoma); SK-MEL-2, five-dose assay",>100 µM
same,TGI,"786-0 (renal cancer); 786-0, five-dose assay",26.70 µM
same,growth inhibition (GI%),"786-0 (renal cancer); 786-0, single dose 10 μM",lethal effect
same,GI50,"786-0 (renal cancer); Homo sapiens, 786-0, five-dose assay",11.7 µM
same,CC50,"786-0 (renal cancer); Homo sapiens, 786-0, five-dose assay, read-out: LC50 (the source's name)",61.1 µM
same,inhibition at 10 µM,"786-0 (renal cancer); Homo sapiens, 786-0, single dose 10 μM, read-out: growth inhibition (GI%)",> 100%
same,GI50,"PC-3 (prostate cancer); PC-3, five-dose assay",40.3 µM
same,TGI,"PC-3 (prostate cancer); PC-3, five-dose assay",>100 µM
same,CC50,"PC-3 (prostate cancer); PC-3, five-dose assay, read-out: LC50 (the source's name)",> 100 µM
same,inhibition at 10 µM,"PC-3 (prostate cancer); PC-3, single dose 10 μM, read-out: growth inhibition (GI%)",67.6%
same,GI50,[1]; [5],10.9 µM
same,"LC50 (lethal concentration, 50% cell kill)",[1]; [5],97.7 µM
same,inhibition at 10 µM,"[1]; Homo sapiens, NCI-H226, single dose 10 μM, read-out: growth inhibition (GI%)",> 100%
same,TGI,"[1]; NCI-H226, five-dose assay",32.60 µM
same,growth inhibition (GI%),"[1]; NCI-H226, single dose 10 μM",lethal effect
same,GI50,"TK-10 (renal cancer); Homo sapiens, TK-10, five-dose assay",17.5 µM
same,CC50,"TK-10 (renal cancer); Homo sapiens, TK-10, five-dose assay, read-out: LC50 (the source's name)",> 100 µM
same,inhibition at 10 µM,"TK-10 (renal cancer); Homo sapiens, TK-10, single dose 10 μM, read-out: growth inhibition (GI%)",> 100%
same,TGI,"TK-10 (renal cancer); TK-10, five-dose assay",34.50 µM
same,growth inhibition (GI%),"TK-10 (renal cancer); TK-10, single dose 10 μM",lethal effect
same,TGI,"[2]; HOP-62, five-dose assay",78.90 µM
same,GI50,[2]; [6],20.7 µM
same,LC50,[2]; [6],> 100 µM
same,inhibition at 10 µM,"[2]; Homo sapiens, HOP-62, single dose 10 μM, read-out: growth inhibition (GI%)",87.9%
same,TGI,"DU-145 (prostate cancer); DU-145, five-dose assay",38.00 µM
same,GI50,"DU-145 (prostate cancer); Homo sapiens, DU-145, five-dose assay",15.5 µM
same,CC50,"DU-145 (prostate cancer); Homo sapiens, DU-145, five-dose assay, read-out: LC50 (the source's name)",93.5 µM
same,inhibition at 10 µM,"DU-145 (prostate cancer); Homo sapiens, DU-145, single dose 10 μM, read-out: growth inhibition (GI%)",80.5%
same,GI50,"HS 578T (breast cancer); Homo sapiens, five-dose assay",2.38 µM
same,LC50 (50% lethal concentration),"HS 578T (breast cancer); Homo sapiens, five-dose assay",> 100 µM
same,inhibition at 10 µM,HS 578T (breast cancer); [7],> 100%
same,TGI,HS 578T (breast cancer); five-dose assay,7.26 µM
same,growth inhibition (GI%),HS 578T (breast cancer); single dose 10 μM,lethal effect
same,GI50,UO-31 (renal cancer); [8],12.6 µM
same,LC50 (50% lethal concentration),UO-31 (renal cancer); [8],> 100 µM
same,inhibition at 10 µM,"UO-31 (renal cancer); Homo sapiens, UO-31, single dose 10 μM, read-out: growth inhibition (GI%)",> 100%
same,TGI,"UO-31 (renal cancer); UO-31, five-dose assay",>100 µM
same,growth inhibition (GI%),"UO-31 (renal cancer); UO-31, single dose 10 μM",lethal effect
same,GI50,"KM12 (colon cancer); Homo sapiens, KM12, five-dose assay",33.6 µM
same,CC50,"KM12 (colon cancer); Homo sapiens, KM12, five-dose assay, read-out: LC50 (the source's name)",> 100 µM
same,inhibition at 10 µM,"KM12 (colon cancer); Homo sapiens, KM12, single dose 10 μM, read-out: growth inhibition (GI%)",55.1%
same,TGI,"KM12 (colon cancer); KM12, five-dose assay",>100 µM
same,TGI,"HCT-116 (colon cancer); HCT-116, five-dose assay",33.30 µM
same,GI50,HCT-116 (colon cancer); [9],14.1 µM
same,LC50,HCT-116 (colon cancer); [9],78.4 µM
same,inhibition at 10 µM,"HCT-116 (colon cancer); Homo sapiens, HCT-116, single dose 10 μM, read-out: growth inhibition (GI%)",69.1%
same,GI50,"UACC-62 (melanoma); Homo sapiens, UACC-62, five-dose assay",17.5 µM
same,CC50,"UACC-62 (melanoma); Homo sapiens, UACC-62, five-dose assay, read-out: LC50 (the source's name)",> 100 µM
same,inhibition at 10 µM,"UACC-62 (melanoma); Homo sapiens, UACC-62, single dose 10 μM, read-out: growth inhibition (GI%)",> 100%
same,TGI,"UACC-62 (melanoma); UACC-62, five-dose assay",60.10 µM
same,growth inhibition (GI%),"UACC-62 (melanoma); UACC-62, single dose 10 μM",lethal effect
same,GI50,[3]; [10],19.1 µM
same,LC50 (concentration causing 50% net cell kill),[3]; [10],> 100 µM
same,inhibition at 10 µM,"[3]; Homo sapiens, NCI-H522, single dose 10 μM, read-out: growth inhibition (GI%)",> 100%
same,TGI,"[3]; NCI-H522, five-dose assay",>100 µM
same,growth inhibition (GI%),"[3]; NCI-H522, single dose 10 μM",lethal effect
same,GI50,"LOX IMVI (melanoma); Homo sapiens, five-dose assay",13.5 µM
same,CC50,"LOX IMVI (melanoma); Homo sapiens, five-dose assay, read-out: LC50 (the source's name)",81.3 µM
same,inhibition at 10 µM,LOX IMVI (melanoma); [7],91.6%
same,TGI,LOX IMVI (melanoma); five-dose assay,33.20 µM
same,TGI,"A498 (renal cancer); A498, five-dose assay",45.20 µM
same,growth inhibition (GI%),"A498 (renal cancer); A498, single dose 10 μM",lethal effect
same,GI50,A498 (renal cancer); [11],15.8 µM
same,LC50 (concentration killing 50% of cells),A498 (renal cancer); [11],> 100 µM
same,inhibition at 10 µM,"A498 (renal cancer); Homo sapiens, A498, single dose 10 μM, read-out: growth inhibition (GI%)",> 100%
same,GI50,[4]; [12],3.2 µM
same,LC50 (concentration killing 50% of cells),[4]; [12],> 100 µM
same,inhibition at 10 µM,"[4]; Homo sapiens, NCI-H23, single dose 10 μM, read-out: growth inhibition (GI%)",68.6%
same,TGI,"[4]; NCI-H23, five-dose assay",>100 µM
same,GI50,"ACHN (renal cancer); Homo sapiens, five-dose assay",15.6 µM
same,LC50,"ACHN (renal cancer); Homo sapiens, five-dose assay",61.8 µM
same,inhibition at 10 µM,ACHN (renal cancer); [7],75.7%
same,TGI,ACHN (renal cancer); five-dose assay,31.00 µM
